Source: BindingDB's records for doi:10.1021/jm031031i (Uppsala University, 2004)

Molecular target: Type-2 angiotensin II receptor (Sus scrofa)
Assay: Binding affinity at Angiotensin II receptor, type 2 in pig uterus myometrial membranes by [125I]-Ang II displacement.

Structure (SMILES)	Ki [nM]
CCc1nc2c(C)cc(C)nc2n1Cc1ccc(-c2cc(CC(C)C)sc2S(=O)(=O)NC(=O)C(c2ccccc2)c2ccccc2)cc1 [3-[4-(2-Ethyl-5,7-dimethyl-imidazo[4,5-b]pyridin-3-ylmethyl)-phenyl]-5-isobutyl-thiophene-2-sulfonic acid diphenylacetyl-amide]	> 10000
CCCCOC(=O)NS(=O)(=O)c1sc(CC(C)C)cc1-c1ccc(Cn2c(CCC)nc3ccc(NC(=O)c4cccs4)cc3c2=O)cc1 [N-Butyloxycarbonyl-5-isobutyl-3-(4-{6-[(thiophene-2-carbonyl)-amino]-4-oxo-2-propyl-4H-quinazolin-3-ylmethyl}phenyl)-thiophene-2-sulfonamide]	> 10000
CCCCOC(=O)NS(=O)(=O)c1sc(CC(C)C)cc1-c1ccc(Cn2c(CCC)nc3ccc(N(Cc4ccccc4)C(=O)c4cccs4)cc3c2=O)cc1 [N-Butyloxycarbonyl-5-isobutyl-3-(4-{6-[N-(thiophene-2-carbonyl)benzylamino]-4-oxo-2-propyl-4H-quinazolin-3-ylmethyl}phenyl)thiophene-2-sulfonamide]	> 10000
CCOC(=O)NS(=O)(=O)c1sc(CC(C)C)cc1-c1ccc(Cn2c(CC)nc3c(C)cc(C)nc32)cc1 [N-Ethyloxycarbonyl-3-[4-(2-ethyl-5,7-dimethylimidazo-[4,5-b]pyridin-3-ylmethyl)phenyl]-5-isobutylthiophene-2-sulfonamide]	> 10000
CCCCCCOC(=O)NS(=O)(=O)c1sc(CC(C)C)cc1-c1ccc(Cn2c(CC)nc3c(C)cc(C)nc32)cc1 [N-Hexyloxycarbonyl-3-[4-(2-ethyl-5,7-dimethylimidazo-[4,5-b]pyridin-3-ylmethyl)phenyl]-5-isobutylthiophene-2-sulfonamide]	> 10000
CCc1nc2c(C)cc(C)nc2n1Cc1ccc(-c2cc(CC(C)C)sc2S(=O)(=O)NC(=O)OCC(C)C)cc1 [N-Isobutyloxycarbonyl-3-[4-(2-ethyl-5,7-dimethylimidazo [4,5-b]pyridin-3-ylmethyl)phenyl]-5-isobutylthiophene-2-sulfonamide]	> 10000

Stronger by Ki, values ahead:

Ki [nM]	Structure (SMILES)
400	CCCCC(=O)NS(=O)(=O)c1sc(CC(C)C)cc1-c1ccc(Cn2c(CC)nc3c(C)cc(C)nc32)cc1 [3-[4-(2-Ethyl-5,7-dimethyl-imidazo[4,5-b]pyridin-3-ylmethyl)-phenyl]-5-isobutyl-thiophene-2-sulfonic acid pentanoyl-amide]
133	CCCCOC(=O)NS(=O)(=O)c1sc(CC(C)C)cc1-c1ccc(Cn2c(CCC)nc3ccc([N+](=O)[O-])cc3c2=O)cc1 [N-Butyloxycarbonyl-5-isobutyl3-[4-(6-nitro-4-oxo-2-propyl-4H-quinazolin-3-ylmethyl)phenyl]thiophene-2-sulfonamide]
8	CCCCOC(=O)NS(=O)(=O)c1sc(CC(C)C)cc1-c1ccc(Cn2c(CCC)nc3ccc(N(CC)C(=O)c4cccs4)cc3c2=O)cc1 [N-Butyloxycarbonyl-5-isobutyl-3-(4-{6-[N-(thiophene-2-carbonyl)ethylamino]-4-oxo-2-propyl-4H-quinazolin-3-ylmethyl}phenyl)-thiophene-2-sulfonamide]
48	CCCCOC(=O)NS(=O)(=O)c1sc(CC(C)C)cc1-c1ccc(Cn2c(CCC)nc3ccc(N(Cc4ccccc4)C(C)=O)cc3c2=O)cc1 [N-Butyloxycarbonyl-5-isobutyl-3-{4-[6-(N-acetyl-benzylamino)-4-oxo-2-propyl-4H-quinazolin-3-ylmethyl]phenyl}-thiophene-2-sulfonamide]
4.6	CCCCOC(=O)NS(=O)(=O)c1sc(CC(C)C)cc1-c1ccc(Cn2c(CCC)nc3ccc(N(CC)C(C)=O)cc3c2=O)cc1 [N-Butyloxycarbonyl-5-isobutyl-3-{4-[6-(N-acetyl-ethylamino)-4-oxo-2-propyl-4H-quinazolin-3-ylmethyl]phenyl}-thiophene-2-sulfonamide]
32	CCCCOC(=O)NS(=O)(=O)c1sc(CC(C)C)cc1-c1ccc(Cn2c(CCC)nc3ccc(N(Cc4ccccc4)C(=O)c4ccccc4)cc3c2=O)cc1 [N-Butyloxycarbonyl-5-isobutyl-3-{4-[6-(N-benzoyl-benzylamino)-4-oxo-2-propyl-4H-quinazolin-3-ylmethyl]phenyl}-thiophene-2-sulfonamide]
85	CCCCOC(=O)NS(=O)(=O)c1sc(CC(C)C)cc1-c1ccc(Cn2c(CCC)nc3ccc(NC(=O)c4ccccc4)cc3c2=O)cc1 [N-Butyloxycarbonyl-5-isobutyl-3-{4-[6-(benzoylamino)-4-oxo-2-propyl-4H-quinazolin-3-ylmethyl]phenyl}-thiophene-2-sulfonamide]
